# Data reported in patent US20140330152A1, “PROVIDING EVIDENCE WHETHER AN INT[…] IS CORRECTLY POSITIONED” (priority 2011, published 2014).
smiles,measurement,setting,value
"O=C([O-])O.[Na+] [bicarbonate (as NaHCO3), sodium bicarbonate]",amount of exhaled carbon dioxide on extravascular administration,administered extravascularly,does not substantially increase
same,clearance: amount of exhaled carbon dioxide returns to normal after administration is stopped,after intravenous administration is stopped,within the third exhalation
